Laboratory results as given in patent publication US20040038861A1, “Methods and compositions for normalizing lipid levels in mammalian tissues” (priority 2001, published 2004).

Key:
soleus muscle [1] = assay: Individual free fatty acids by gas chromatography in soleus muscle of rats fed high fat diets; parameters: species or system rat; conditions: 1 hour, GC
Description: (§1) High-fatted rats. Groups of male Wistar rats (n=21/diet) were ad libitum fed high-fat diets containing standard rat chow to which 40% (w/w) of lard, corn oil or olive oil had been added, from the time of weaning (age=21 d) until sacrifice at 50 d. Triacylglycerol from lard contains predominantly saturated fatty acids; that from corn oil […], see Table 4.
(§2) Soleus muscle tissue isolation and incuhation.Immersion and incubation media was Krebs-Henseleit buffer (KHB) containing 118.5 mM NaCl, 4.75 mM KCl, 1.18 mM MgSO4.7H2O and KH2PO4, 24.8 mM NaHCO3, 2.54 mM CaCl2 and 10 mM d-glucose. The medium was gassed continuously with 95% O2/5% CO2. […] Soleus muscles of both legs were excised keeping the tissue immersed in KHB; muscles were separated into two equal parts and transferred to the incubation flasks. At the completion of incubation the muscles were snap frozen in liquid nitrogen, and then trimmed of connective tissue and all visible fat. The muscle strips were stored at −80° C. until analysis.
(§3) Lipid extraction and chromatographic separation of fatty acids. Total lipids were extracted from muscle strips by a modified version of the method of Bligh and Dyer (Gorski et al., 1988, Mol & Cell Biochem 178:113-118; 1. Bligh et al., 1959, Can J Biochem Physiol 37: 911-917). Muscles were homogenised (Soniprep 150) in 0.4 ml of deionised water. Solvent volumes used herein were varied according to the water content of the muscle (ie muscle weight) as described (Bligh & Dyer, supra). 2 vols of methanol containing 0.005% butylated hydroxy toluene (BHT) and 1 vol chloroform were added to the muscle suspension. Homogenates were vortexed at maximum speed for 2 minutes and centrifuged at 2,500 g for 4 minutes. Supernatants were recovered and pellets re-extracted with 2 vol methanol, 1 vol chloroform and 0.8 vol 0.2 N HCl. Residues were vortexed for 2 min then centrifuged at 3,500 g for 3 min. After centrifugation the combined supernatants were diluted with 2v each of milli Q water and chloroform and the phases separated by centrifugation at 3,500 g for 4 minutes. The lower chloroform phase was recovered, neutralised by dropwise addition of 0.2 N methanolic NH4OH and evaporated down in a stream of N2. The samples were stored at −80° C. until required.
(§4) Aminopropyl phase (250 mg) was packed into 16 ml teflon columns with teflon frits placed at the top and bottom of the bonded phase. Columns were placed in a Vac Elut apparatus and washed twice with 2 ml portions of hexane (Prasad et al., 1988, J Chromato 428: 221-228; Kaluzny et al., 1985, J Lipid Res 26: 135-140). The dry lipid samples were taken up in two 0.150 ml portions of chloroform and applied to the column under atmospheric pressure. After adsorption the neutral lipids were eluted with 4 ml of chloroform-2-propanol (2:1, v/v) and the free fatty acids eluted with 4 ml of 2% acetic acid in diethyl ether. The solvent containing the free fatty acids was dried under a stream of N2.
Gas-liquid chromatographic analysis. Dry free fatty acid residues were processed for derivatisation of methyl esters by the boron trifluoride-methanol method (Prasad, supra). 1 ml of boron trifluoride in methanol (BF3) was added to each sample, the sample vials were heated at 70° C. for 5 minutes, shaken vigorously, and baked for a further 10 minutes. Once the samples reached room temperature 0.5 ml milli Q water was added, the sample vials shaken, 0.1 ml heptane was added and the sample shaken again. 0.05 ml of the top heptane layer was removed for GLC analysis. A Model HP5890 Plus Series 2 (Hewlett-Packard) gas chromatograph equipped with a DB-225 column was used to separate the methyl esters of the fatty acids and a Model HP 5890 GC with a Model HP 5973 MS (Hewlett-Packard) GC/MS used to confirm the identity of individual free fatty acids. […]

soleus muscle [2] = assay: Triglyceride and free fatty acid content (enzymatic) in isolated soleus muscle of rats fed high fat diets; assay type: cell-based, rat; conditions: diet with 40% added lard, 100 nM amylin or CGRP-1, 4.4 μM norepinephrine, 1 h
Description: as §1, §2, §3, §4
Determination of tissue free fatty acids and triacylglycerol concentration by enzymatic analyses. Free fatty acids were separated from total lipid, evaporated under a stream of N2 and stored at −80° C. until analysis. Samples were dissolved in 50 μl of warm ethanol (35-40° C.), and 0.625 ml of a Triton X-100 (6% w/v) solution was added once the ethanol reached room temperature. The solution was stirred for 30 min, then made up to 0.825 ml with the Triton solution. Free fatty acids were quantified using a commercial method (Boehringer Mannheim) adapted for micro analyses (Cobas Mira, Roche Diagnostics), with palmitic acid standards. Triacyl glycerol levels were quantified in the total lipid fraction (Pointe Scientific) with a glycerol standard.
Total lipid was extracted and quantitated. Results are shown in FIGS. 18A NEFA and 18B triglyceride.

soleus muscle [3] = assay: Lipid metabolites (free fatty acid, glycerol, triglyceride; enzymatic analysis) in isolated soleus muscle from normally fed rats; assay type: cell-based, rat; conditions: soleus, normally fed rats, 100 nM amylin or CGRP-1, 4.4 μM norepinephrine
[4] = rats fed diet high in olive oil

## NC[C@H](O)c1ccc(O)c(O)c1 [Norepinephrine, norepinephrine]
Soleus muscle [1]; rats fed diet high in corn oil
  free fatty acid adrenic C22:4: 0.05 ± 0.004 nmol/g wwt
  free fatty acid arachidic C20:0: 0.03 ± 0.002 nmol/g wwt
  free fatty acid arachidonic C20:4: 0.08 ± 0.009 nmol/g wwt
  free fatty acid cervonic C22:6: 0.04 ± 0.003 nmol/g wwt
  free fatty acid linoleic C18:2: 0.14 ± 0.02 nmol/g wwt
  free fatty acid linolenic C18:3: 0.13 ± 0.01 nmol/g wwt
  free fatty acid margaric C17:0: 0.04 ± 0.006 nmol/g wwt
  free fatty acid myristic C14:0: 0.02 ± 0.002 nmol/g wwt
  free fatty acid oleic C18:1: 0.12 ± 0.02 nmol/g wwt
  free fatty acid palmitic C16:0: 0.09 ± 0.01 nmol/g wwt
  free fatty acid palmitoleic (n-7) C16:1: 0.007 ± 0.0005 nmol/g wwt
  free fatty acid palmitoleic (n-9) C16:1: 0.15 ± 0.01 nmol/g wwt
  free fatty acid pentadecanoic C15:0: 0.04 ± 0.005 nmol/g wwt
  free fatty acid stearic C18:0: 0.11 ± 0.008 nmol/g wwt
  free fatty acid timnodonic C20:5: 0.05 ± 0.005 nmol/g wwt
  free fatty acid vaccenic C18:1: 0.02 ± 0.001 nmol/g wwt
Soleus muscle [1]; rats fed diet high in lard
  free fatty acid adrenic C22:4: 0.02 ± 0.003 nmol/g wwt
  free fatty acid arachidic C20:0: 0.03 ± 0.004 nmol/g wwt
  free fatty acid arachidonic C20:4: 0.012 ± 0.003 nmol/g wwt
  free fatty acid cervonic C22:6: 0.01 ± 0.001 nmol/g wwt
  free fatty acid linoleic C18:2: 0.09 ± 0.003 nmol/g wwt
  free fatty acid margaric C17:0: 0.08 ± 0.008 nmol/g wwt
  free fatty acid myristic C14:0: 0.04 ± 0.007 nmol/g wwt
  free fatty acid oleic C18:1: 0.21 ± 0.01 nmol/g wwt
  free fatty acid palmitic C16:0: 0.23 ± 0.02 nmol/g wwt
  free fatty acid palmitoleic (n-7) C16:1: 0.02 ± 0.0008 nmol/g wwt
  free fatty acid palmitoleic (n-9) C16:1: 0.01 ± 0.001 nmol/g wwt
  free fatty acid pentadecanoic C15:0: 0.13 ± 0.02 nmol/g wwt
  free fatty acid stearic C18:0: 0.22 ± 0.01 nmol/g wwt
  free fatty acid timnodonic C20:5: 0.02 ± 0.004 nmol/g wwt
  free fatty acid vaccenic C18:1: 0.07 ± 0.003 nmol/g wwt
Soleus muscle [1]; [4]
  free fatty acid adrenic C22:4: 0.02 ± 0.0007 nmol/g wwt
  free fatty acid arachidic C20:0: 0.009 ± 0.0004 nmol/g wwt
  free fatty acid arachidonic C20:4: 0.03 ± 0.0008 nmol/g wwt
  free fatty acid cervonic C22:6: 0.12 ± 0.03 nmol/g wwt
  free fatty acid linoleic C18:2: 0.04 ± 0.009 nmol/g wwt
  free fatty acid linolenic C18:3: 0.04 ± 0.01 nmol/g wwt
  free fatty acid margaric C17:0: 0.01 ± 0.001 nmol/g wwt
  free fatty acid myristic C14:0: 0.005 ± 0.0002 nmol/g wwt
  free fatty acid oleic C18:1: 0.28 ± 0.03 nmol/g wwt
  free fatty acid palmitic C16:0: 0.19 ± 0.002 nmol/g wwt
  free fatty acid palmitoleic (n-7) C16:1: 0.03 ± 0.009 nmol/g wwt
  free fatty acid palmitoleic (n-9) C16:1: 0.23 ± 0.01 nmol/g wwt
  free fatty acid pentadecanoic C15:0: 0.01 ± 0.0004 nmol/g wwt
  free fatty acid stearic C18:0: 0.16 ± 0.006 nmol/g wwt
  free fatty acid timnodonic C20:5: 0.04 ± 0.004 nmol/g wwt
  free fatty acid vaccenic C18:1: 0.2 ± 0.003 nmol/g wwt
Soleus muscle [2]; control 1.14±0.16
  soleus muscle triglyceride content: 0.69 ± 0.09 µmol/g
Soleus muscle [2]; control 43±8
  soleus muscle free fatty acid content: 75 ± 7 nmol/g
Soleus muscle [3]; 60-min, control 1.17±0.15, not significant
  triacylglycerol (triglyceride) content: 0.81 ± 0.09 µmol/g
Soleus muscle [3]; 1 h, 23.7 nM insulin, control 78±21
  intramuscular free fatty acid content: 295 ± 27 nmol/g
Soleus muscle [3]; 1 h, control 0.07±0.007
  intramuscular glycerol content: 0.04 ± 0.005 nmol/g
